From PubChem BioAssay (NCI)
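Tested at 5 concentrations; 48 h exposure; 96-well plates; endpoints linearly interpolated, else capped at highest concentration. The concentration for full growth arrest is given as TGI.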

Legend:
Assay in all cases: NCI tumour cell line growth inhibition, 48 h
[1] = tested on: HOP-18 NSCLC
[2] = tested on: LXFL 529 NSCLC
[3] = tested on: DMS 114 small cell lung
[4] = tested on: DLD-1 colon
[5] = tested on: SNB-78 CNS
[6] = tested on: XF 498 CNS
[7] = tested on: KM20L2 colon
[8] = tested on: M19-MEL melanoma
[9] = tested on: DMS 273 small cell lung
[10] = tested on: RXF-631 renal

Structure (SMILES) | TGI [1] [µM] | TGI [2] [µM] | TGI [3] [µM] | TGI [4] [µM] | TGI [5] [µM] | TGI [6] [µM] | TGI [7] [µM] | TGI [8] [µM] | TGI [9] [µM] | TGI [10] [µM]
Cc1nc(N)nc(N)c1-c1ccc(Cl)c(Cl)c1 | > 100 | > 100 | > 100 | 55 | > 100 | > 100 | > 100 | > 100 | > 100 | –
COc1cc(OC)c2c(c1)C(=O)C(CC(C)O)=CC2=O (stereo not given) | 30.4 | 26.1 | 9.21 | 28.5 | 32 | 27 | 31.8 | 11.4 | 37.6 | –
ONc1ncnc2nc[nH]c12 | – | > 100 | > 100 | > 100 | – | > 100 | > 100 | > 100 | > 100 | –
Cc1c(/C=N/NC(=O)c2cc(Br)cc(Br)c2O)c(=O)n(-c2ccccc2)n1C | – | > 100 | 88.8 | > 100 | > 100 | 37.9 | > 100 | > 100 | > 100 | –
Cc1csc(=S)n1OC(=O)NC1CCCCC1 | – | > 24 | 44.7 | > 100 | > 100 | > 100 | – | > 56.6 | > 79.9 | –
C=CC/C=C/Cc1csc(C(C)(C)C(O)C/C=C/C(=C)CCNC(=O)OC)n1 (stereo not given) | – | > 100 | 2.91 | > 100 | – | > 100 | > 100 | > 100 | > 100 | –
O=C1C(Br)=CC2(C=C1Br)CCNC1=C2C(=O)c2ccccc2C1=O | > 100 | 35.1 | 22.8 | 28.4 | > 100 | – | 91.8 | 18.4 | – | 26.6
